Laboratory results published in the NIST ThermoML archive (doi:10.1016/j.jct.2017.07.016).

Experiment: xn = mol fraction of the nth substance listed
Details: 96.7 kPa, Liquid; for viscosity: Capillary tube (Ostwald / Ubbelohde) method; for mass density: Vibrating tube method

CCCCCCn1cc[n+](C)c1.[Cl-] [1-hexyl-3-methylimidazolium chloride] + c1ccncc1
Details	mass density [kg/m3]	viscosity [mPa·s]
303.15 K, x1 = 0.145	1000.09	3.442
303.15 K, x1 = 0.281	1013.46	12.9
303.15 K, x1 = 0.369	1019.3	27.09
303.15 K, x1 = 0.477	1025.04	89.47
303.15 K, x1 = 0.608	1029.07	266.74
303.15 K, x1 = 0.778	1033.09	1015.3
303.15 K, x1 = 0.877	1034.58	1617.5
303.15 K, x1 = 1	1036.07	5718.5
308.15 K, x1 = 0.145	995.92	3.081
308.15 K, x1 = 0.281	1009.71	11.03
308.15 K, x1 = 0.369	1015.8	22.93
308.15 K, x1 = 0.477	1021.74	68.74
308.15 K, x1 = 0.608	1025.91	192.89
308.15 K, x1 = 0.778	1030.09	686.42
308.15 K, x1 = 0.877	1031.66	1126
308.15 K, x1 = 1	1033.22	3430.8
313.15 K, x1 = 0.145	991.76	2.785
313.15 K, x1 = 0.281	1006	9.532
313.15 K, x1 = 0.369	1012.3	19.12
313.15 K, x1 = 0.477	1018.45	53.91
313.15 K, x1 = 0.608	1022.78	144.2
313.15 K, x1 = 0.778	1027.11	476.57
313.15 K, x1 = 0.877	1028.74	773.43
313.15 K, x1 = 1	1030.38	2146.1
318.15 K, x1 = 0.145	987.59	2.533
318.15 K, x1 = 0.281	1002.31	8.293
318.15 K, x1 = 0.369	1008.82	16.07
318.15 K, x1 = 0.477	1015.17	43.07
318.15 K, x1 = 0.608	1019.67	109.94
318.15 K, x1 = 0.778	1024.17	341.19
318.15 K, x1 = 0.877	1025.86	528.89
318.15 K, x1 = 1	1027.56	1390.4
323.15 K, x1 = 0.145	983.43	2.307
323.15 K, x1 = 0.281	998.61	7.283
323.15 K, x1 = 0.369	1005.33	13.71
323.15 K, x1 = 0.477	1011.9	35.05
323.15 K, x1 = 0.608	1016.57	85.19
323.15 K, x1 = 0.778	1021.24	249.82
323.15 K, x1 = 0.877	1022.99	376.53
323.15 K, x1 = 1	1024.75	928.1
328.15 K, x1 = 0.145	979.27	2.128
328.15 K, x1 = 0.281	994.88	6.442
328.15 K, x1 = 0.369	1001.86	11.78
328.15 K, x1 = 0.477	1008.64	28.97
328.15 K, x1 = 0.608	1013.48	67.45
328.15 K, x1 = 0.778	1018.31	185.55
328.15 K, x1 = 0.877	1020.12	273.63
328.15 K, x1 = 1	1021.92	638.79
333.15 K, x1 = 0.145	975.09	1.956
333.15 K, x1 = 0.281	991.21	5.738
333.15 K, x1 = 0.369	998.39	10.23
333.15 K, x1 = 0.477	1005.4	24.13
333.15 K, x1 = 0.608	1010.39	53.7
333.15 K, x1 = 0.778	1015.38	141.51
333.15 K, x1 = 0.877	1017.26	203.81
333.15 K, x1 = 1	1019.13	453.59
338.15 K, x1 = 0.145	970.94	1.793
338.15 K, x1 = 0.281	987.55	5.141
338.15 K, x1 = 0.369	994.92	8.972
338.15 K, x1 = 0.477	1002.17	20.39
338.15 K, x1 = 0.608	1007.32	43.75
338.15 K, x1 = 0.778	1012.47	109.4
338.15 K, x1 = 0.877	1014.43	154.83
338.15 K, x1 = 1	1016.38	327.52
343.15 K, x1 = 0.145	966.81	1.686
343.15 K, x1 = 0.281	983.89	4.636
343.15 K, x1 = 0.369	991.46	7.907
343.15 K, x1 = 0.477	998.94	17.36
343.15 K, x1 = 0.608	1004.24	35.95
343.15 K, x1 = 0.778	1009.55	86.53
343.15 K, x1 = 0.877	1011.6	120.81
343.15 K, x1 = 1	1013.65	243.04
348.15 K, x1 = 0.145	962.62	1.57
348.15 K, x1 = 0.281	980.23	4.198
348.15 K, x1 = 0.369	988.01	6.978
348.15 K, x1 = 0.477	995.69	14.96
348.15 K, x1 = 0.608	1001.17	30.11
348.15 K, x1 = 0.778	1006.66	68.87
348.15 K, x1 = 0.877	1008.78	94.01
348.15 K, x1 = 1	1010.91	183.45
353.15 K, x1 = 0.145	958.42	1.451
353.15 K, x1 = 0.281	976.57	3.822
353.15 K, x1 = 0.369	984.56	6.279
353.15 K, x1 = 0.477	992.4	13
353.15 K, x1 = 0.608	998.08	25.29
353.15 K, x1 = 0.778	1003.77	56.47
353.15 K, x1 = 0.877	1005.97	75.17
353.15 K, x1 = 1	1008.18	140.06
